Source: PubChem BioAssay AID256 (DTP/NCI, 2004)
Values joined by “and” are separate entries in the source; they are usually repeats but may differ in a detail not shown here. Equal entries are not always repeated. Inconclusive results and toxic doses are left out. The calls were made as follows: active = survival T/C of 150% or more; inactive = T/C below 125% in these data.

Test system: CD2F1 mice, L1210 leukemia ip, survival T/C
Test: NCI In Vivo Anticancer Drug Screen. Data for tumor model L1210 Leukemia (intraperitoneal) in CD2F1 (CDF1) mice
Conditions: higher = longer survival
Experimental: The antitumor activity of compounds was measured in mice bearing transplantable tumors. Survival or tumor size were measured and the results are expressed as the measurement made in the treated group (T) divided by the measurement made in the vehicle treated control group (C). The tumor model used in this assay is L1210 Leukemia (intraperitoneal) in CD2F1 (CDF1) mice

[1] = endpoint: mean survival time, dose: 100.0 mg/kg/injection, schedule: Q01DX001 (ip), vehicle: saline with Tween-80
[2] = endpoint: mean survival time, dose: 200.0 mg/kg/injection, schedule: Q01DX001 (ip), vehicle: saline with Tween-80
[3] = endpoint: mean survival time, dose: 100.0 mg/kg/injection, schedule: Q04DX003 (ip), vehicle: saline with Tween-80
[4] = endpoint: mean survival time, dose: 200.0 mg/kg/injection, schedule: Q04DX003 (ip), vehicle: saline with Tween-80
[5] = endpoint: mean survival time, dose: 100.0 mg/kg/injection, schedule: Q01DX001 (ip), vehicle: Klucel (hydroxypropylcellulose) (HPC)
[6] = endpoint: mean survival time, dose: 200.0 mg/kg/injection, schedule: Q01DX001 (ip), vehicle: Klucel (hydroxypropylcellulose) (HPC)
[7] = endpoint: mean survival time, dose: 400.0 mg/kg/injection, schedule: Q01DX001 (ip), vehicle: Klucel (hydroxypropylcellulose) (HPC)
[8] = endpoint: mean survival time, dose: 100.0 mg/kg/injection, schedule: Q01DX009 (ip), vehicle: saline with Tween-80
[9] = endpoint: mean survival time, dose: 200.0 mg/kg/injection, schedule: Q01DX009 (ip), vehicle: saline with Tween-80
[10] = endpoint: mean survival time, dose: 50.0 mg/kg/injection, schedule: Q01DX009 (ip), vehicle: saline with Tween-80
[11] = endpoint: mean survival time, dose: 100.0 mg/kg/injection, schedule: Q04DX002 (ip), vehicle: saline with Tween-80
[12] = endpoint: mean survival time, dose: 200.0 mg/kg/injection, schedule: Q04DX002 (ip), vehicle: saline with Tween-80
[13] = endpoint: mean survival time, dose: 400.0 mg/kg/injection, schedule: Q04DX002 (ip), vehicle: saline with Tween-80

Measured: T/C

CN(CC(=O)C(C)(C)C)c1ccccc1
inactive: endpoint: mean survival time, dose: 100.0 mg/kg/injection, schedule: Q04DX003 (ip), vehicle: saline 103 % of control | endpoint: mean survival time, dose: 200.0 mg/kg/injection, schedule: Q04DX003 (ip), vehicle: saline 97 % of control | endpoint: mean survival time, dose: 400.0 mg/kg/injection, schedule: Q04DX003 (ip), vehicle: saline 103 % of control

C=C(Br)CC1CCCCC1=O (stereo not given)
inactive: [1] 94 % of control | endpoint: mean survival time, dose: 100.0 mg/kg/injection, schedule: Q01DX009 (ip), vehicle: saline sonified 98 % of control | [2] 93 % of control | endpoint: mean survival time, dose: 200.0 mg/kg/injection, schedule: Q01DX009 (ip), vehicle: saline sonified 94 % of control | endpoint: mean survival time, dose: 400.0 mg/kg/injection, schedule: Q01DX001 (ip), vehicle: saline with Tween-80 95 % of control | endpoint: mean survival time, dose: 400.0 mg/kg/injection, schedule: Q01DX009 (ip), vehicle: saline sonified 100 % of control

CC1C2CCC(C2)C1N (stereo not given)
inactive: endpoint: mean survival time, dose: 50.0 mg/kg/injection, schedule: Q01DX009 (ip), vehicle: saline 99 % of control | endpoint: mean survival time, dose: 100.0 mg/kg/injection, schedule: Q01DX009 (ip), vehicle: saline 99 % of control | endpoint: mean survival time, dose: 200.0 mg/kg/injection, schedule: Q01DX009 (ip), vehicle: saline 99 % of control

O=C(/C(=N\O)c1ccc(Cl)cc1)c1ccc(Cl)cc1
inactive: [3] 95 % of control | [4] 87 % of control

CC(=O)Nc1cccc(OCOc2ccc([N+](=O)[O-])cc2)c1
inactive: [5] 90 % of control | [6] 110 % of control | [7] 97 % of control

C1CCC(N(C2CCCCC2)C2CCCCC2)CC1
inactive: [1] 107 % of control | [2] 104 % of control | endpoint: mean survival time, dose: 300.0 mg/kg/injection, schedule: Q01DX001 (ip), vehicle: saline with Tween-80 96 % of control

O=c1c2ncn(C3OC(CO)C(O)C3O)c2nc[n]1[Hg][c]1ccccc1 (stereo not given)
inactive: endpoint: median survival time, dose: 0.79 mg/kg/injection, schedule: Q01DX005 (ip), vehicle: saline 103 % of control | endpoint: median survival time, dose: 1.56 mg/kg/injection, schedule: Q01DX005 (ip), vehicle: saline 111 % of control | endpoint: median survival time, dose: 3.12 mg/kg/injection, schedule: Q01DX005 (ip), vehicle: saline 115 % of control | endpoint: median survival time, dose: 6.25 mg/kg/injection, schedule: Q01DX005 (ip), vehicle: saline 105 % of control | endpoint: median survival time, dose: 12.5 mg/kg/injection, schedule: Q01DX005 (ip), vehicle: saline 112 % of control

Cc1ccc(S(=O)(=O)N(C)c2ccc(I)cc2F)cc1
inactive: [8] 104 % of control | [9] 95 % of control | endpoint: mean survival time, dose: 400.0 mg/kg/injection, schedule: Q01DX009 (ip), vehicle: saline with Tween-80 101 % of control

COc1ccccc1N=Nc1c(O)n(-c2ccccc2OC)c(=S)n(-c2ccc(Cl)cc2)c1=O
inactive: [1] 90 % of control | [2] 93 % of control

CCC(C)(O)c1ccccc1 (stereo not given)
inactive: [10] 103 % of control | [8] 100 % of control | [9] 95 % of control

CCCCCCCCCCCCCCCCCC(=O)NN
inactive: [8] 93 % of control | [3] 91 % of control | [9] 104 % of control | [4] 96 % of control | endpoint: mean survival time, dose: 266.0 mg/kg/injection, schedule: Q01DX009 (ip), vehicle: saline with Tween-80 119 % of control | endpoint: mean survival time, dose: 400.0 mg/kg/injection, schedule: Q04DX003 (ip), vehicle: saline with Tween-80 109 % of control | endpoint: mean survival time, dose: 600.0 mg/kg/injection, schedule: Q01DX009 (ip), vehicle: saline with Tween-80 119 % of control

C=CCOc1ccc(Cl)cc1
inactive: [5] 108 % of control | [6] 92 % of control | [7] 100 % of control

CC(C)(C[NH-])C[NH-].O=C(O)CC(=O)O.[Pt+2]
inactive: endpoint: median survival time, dose: 0.78 mg/kg/injection, schedule: Q04DX003 (ip), vehicle: water 116 % of control | endpoint: median survival time, dose: 1.56 mg/kg/injection, schedule: Q04DX003 (ip), vehicle: water 113 % of control | endpoint: median survival time, dose: 3.12 mg/kg/injection, schedule: Q04DX003 (ip), vehicle: water 112 % of control | endpoint: median survival time, dose: 3.13 mg/kg/injection, schedule: Q04DX003 (ip), vehicle: distilled water + Tween-80 123 % of control | endpoint: median survival time, dose: 12.5 mg/kg/injection, schedule: Q04DX003 (ip), vehicle: distilled water + Tween-80 116 % of control | endpoint: median survival time, dose: 12.5 mg/kg/injection, schedule: Q04DX003 (ip), vehicle: water 112 % of control | endpoint: median survival time, dose: 25.0 mg/kg/injection, schedule: Q04DX003 (ip), vehicle: distilled water + Tween-80 98 % of control

c1ccc2c(c1)cc1cnc3cccc4ccc2c1c43
inactive: endpoint: mean survival time, dose: 12.5 mg/kg/injection, schedule: Q04DX002 (ip), vehicle: saline with Tween-80 96 % of control | endpoint: mean survival time, dose: 25.0 mg/kg/injection, schedule: Q04DX002 (ip), vehicle: saline with Tween-80 101 % of control | endpoint: mean survival time, dose: 50.0 mg/kg/injection, schedule: Q04DX002 (ip), vehicle: saline with Tween-80 90 % of control

CC(=O)Oc1cccc(/C=C/[N+](=O)[O-])c1
inactive: endpoint: mean survival time, dose: 75.0 mg/kg/injection, schedule: Q01DX001 (ip), vehicle: steriod suspending solution 97 % of control | endpoint: mean survival time, dose: 150.0 mg/kg/injection, schedule: Q01DX001 (ip), vehicle: steriod suspending solution 97 % of control | endpoint: mean survival time, dose: 300.0 mg/kg/injection, schedule: Q01DX001 (ip), vehicle: steriod suspending solution 110 % of control

COc1ccc(CC(N)C(=O)OCc2ccccc2)cc1N(CCCl)CCCl (stereo not given)
active: endpoint: mean survival time, dose: 3.0 mg/kg/injection, schedule: Q01DX009 (ip), vehicle: saline 177 % of control
inactive: endpoint: mean survival time, dose: 6.0 mg/kg/injection, schedule: Q01DX009 (ip), vehicle: saline 118 % of control

O=C1CCCCC1CNCc1ccccc1 (stereo not given)
inactive: endpoint: mean survival time, dose: 75.0 mg/kg/injection, schedule: Q01DX001 (ip), vehicle: saline 102 % of control | endpoint: mean survival time, dose: 150.0 mg/kg/injection, schedule: Q01DX001 (ip), vehicle: saline 93 % of control

CO[C@@]12[C@@H]3N[C@@H]3CN1C1=C(C(=O)C(Nc3nc(C)c(C)s3)=C(C)C1=O)[C@@H]2COC(N)=O
inactive: endpoint: median survival time, dose: 1.5 mg/kg/injection, schedule: Q01DX001 (ip), vehicle: distilled water + Tween-80 98 % of control and 101 % of control | endpoint: median survival time, dose: 3.0 mg/kg/injection, schedule: Q01DX001 (ip), vehicle: distilled water + Tween-80 120 % of control and 101 % of control and 102 % of control | endpoint: median survival time, dose: 6.0 mg/kg/injection, schedule: Q01DX001 (ip), vehicle: distilled water + Tween-80 123 % of control and 101 % of control (2×) | endpoint: median survival time, dose: 12.0 mg/kg/injection, schedule: Q01DX001 (ip), vehicle: distilled water + Tween-80 98 % of control and 101 % of control | endpoint: median survival time, dose: 24.0 mg/kg/injection, schedule: Q01DX001 (ip), vehicle: distilled water + Tween-80 121 % of control and 102 % of control and 106 % of control

NC(=O)c1cc(N2CC2)c([N+](=O)[O-])cc1[N+](=O)[O-]
inactive: endpoint: mean survival time, dose: 25.0 mg/kg/injection, schedule: Q01DX009 (ip), vehicle: saline with Tween-80 114 % of control | endpoint: mean survival time, dose: 25.0 mg/kg/injection, schedule: Q04DX003 (ip), vehicle: saline with Tween-80 110 % of control | [10] 115 % of control | endpoint: mean survival time, dose: 50.0 mg/kg/injection, schedule: Q04DX003 (ip), vehicle: saline with Tween-80 97 % of control | [3] 106 % of control

Cc1cccc[n+]1C
inactive: endpoint: mean survival time, dose: 12.5 mg/kg/injection, schedule: Q04DX003 (ip), vehicle: saline 102 % of control | endpoint: mean survival time, dose: 25.0 mg/kg/injection, schedule: Q04DX003 (ip), vehicle: saline 104 % of control | endpoint: mean survival time, dose: 50.0 mg/kg/injection, schedule: Q04DX003 (ip), vehicle: saline 100 % of control

COc1ccc(N=C(C)CC(C)=O)cc1
inactive: [11] 98 % of control | [12] 95 % of control | [13] 95 % of control

CN(C(=S)S(=O)(=O)C12CC3CC(CC(C3)C1)C2)c1ccccc1
inactive: endpoint: mean survival time, dose: 3.12 mg/kg/injection, schedule: Q01DX009 (ip), vehicle: Klucel (hydroxypropylcellulose) (HPC) 94 % of control and 96 % of control and 105 % of control | endpoint: mean survival time, dose: 6.25 mg/kg/injection, schedule: Q01DX009 (ip), vehicle: Klucel (hydroxypropylcellulose) (HPC) 100 % of control (2×) and 105 % of control | endpoint: mean survival time, dose: 12.5 mg/kg/injection, schedule: Q01DX009 (ip), vehicle: Klucel (hydroxypropylcellulose) (HPC) 100 % of control and 102 % of control and 107 % of control | endpoint: mean survival time, dose: 25.0 mg/kg/injection, schedule: Q01DX009 (ip), vehicle: Klucel (hydroxypropylcellulose) (HPC) 98 % of control and 102 % of control and 107 % of control | endpoint: mean survival time, dose: 50.0 mg/kg/injection, schedule: Q01DX009 (ip), vehicle: Klucel (hydroxypropylcellulose) (HPC) 96 % of control and 104 % of control and 105 % of control | endpoint: mean survival time, dose: 100.0 mg/kg/injection, schedule: Q01DX009 (ip), vehicle: Klucel (hydroxypropylcellulose) (HPC) 117 % of control and 96 % of control and 102 % of control

CC(C)(C)COC(=S)Oc1ccc(C(C)(C)C)cc1
inactive: [11] 89 % of control | [12] 104 % of control | [13] 100 % of control
